Reference: US20120196887A1, “METHODS AND COMPOSITIONS FOR IMPROVED RIFAMYCIN THERAPIES” (priority 2011, published 2012)
Values after ≈ are worked out from the molar mass of the structure shown. Values joined by “and” are separate entries in the source; they are usually repeats but may differ in a detail not shown here. Equal entries are not always repeated. Where two headings read alike, the source gives them in different places.

What was measured:
[1] = test system: Enterotoxigenic Escherichia coli (ETEC) strain H10407; assay: Growth of ETEC strain H10407 with rifaximin in the presence and absence of bile acids (OD600 / cell density); type: cell-based
[2] = test system: Enterotoxigenic Escherichia coli (ETEC) strain H10407; assay: as above; type: cell-based; remark: listed apart in the source
Protocol: Enterotoxigenic Escherichia coli (ETEC) strain H10407 was used as a model bacteria in all the susceptibility experiments.
Equimolar concentrations (0.67 mM) of each of these bile acids were pooled (4 mM total bile acids) for the experiments. In order to determine the Total Human Bile Concentration, a sample of human bile taken after cholecystectomy was kindly provided by Dr. David Graham (Department of Medicine, Veterans Affairs Medical Center and the Division of Molecular Virology, Baylor College of Medicine, Houston, Tex., and Director of Study Design and Clinical Research Core, Texas Medical Center Digestive Disease. Center). The total bile acids concentration was determined using the Diazyme Total Bile Acids assay (Diazyme Laboratories, CA) following the protocol provided by the manufacturer.
In each experiment, an overnight culture of E. coli H10407 was added to the LB media to OD600 of 0.04 (approximately 4×10^7 cells/mL) and incubated for 4-6 hours at 37° C. in a shaker at 200 rpm. Optical density measurements (OD600) were determined every 30 minutes. The experiment was replicated four times and average OD used for the analysis. […]

Clostridium difficile = settings: cited from earlier work
E. coli H10407 = assay: Total protein content of bacteria treated with rifaximin and bile acids (Bradford assay); type: cell-based, Escherichia coli; settings: 16 μg/mL rifaximin + bile acids vs rifaximin without bile acids; 4 hours incubation
Protocol: Aliquots (1 mL) of the culture in each tube were taken every hour for total protein determination. In order to lyse the cells and release the protein, 300 μL of permeabilization solution (2.4 mg/mL hexadecyl trimethylammonium bromide, 1.2 mg/mL sodium deoxycholate, 600 mM dibasic sodium phosphate, 60 mM potassium chloride, 6 mM magnesium sulfate, and 16 μL/mL beta-mercaptoethanol) was added. The tubes were incubated for one hour at room temperature and then centrifuged at 15000×g for 20 minutes. The protein concentration was determined in triplicate using the Bradford assay (Bradford, M. M., A rapid and sensitive method for the quantitation of microgram quantities of protein utilizing the principle of protein-dye binding. Anal Biochem. 72:248-54, 1976) using bovine serum albumin (BSA) as the standard. Each experiment was repeated three times with the average and standard deviation reported.

[3] = test system: beta-galactosidase expressed by E. coli H10407; assay: Beta-galactosidase assay (IPTG-induced expression, Miller Units); type: cell-based, Escherichia coli; settings: rifaximin added to the culture medium (8, 16, 32 μg/mL), no bile acids
Protocol: Beta-Galactosidase Assay: Beta-galactosidase is an essential enzyme required by E. coli to metabolize lactose during conditions when available glucose levels are low, but lactose levels are high. When expression of beta-galactosidase is inhibited in a media containing limiting amounts of glucose but high amounts of lactose, once the glucose in the media is exhausted bacterial death occurs. […] To, 1.5 mL microfuge tubes, 50 μL of the induced culture was added to 200 μL of permeabilization solution (0.8 mg/mL hexadecyl trimethylammonium bromide (CTAB), 0.4 mg/mL sodium deoxycholate, 200 mM dibasic sodium phosphate (Na2HPO4), 20 mM potassium chloride (KCl), 2 mM magnesium sulfate (MgSO4), and 5.4 μL/mL beta-mercaptoethanol. After 30 minutes incubation at 30° C., 600 μL of substrate solution (60 mM Na2HPO4, 40 mM NaH2PO4, 10 mM KCl, 20 μg/mL CTAB, 1 mg/mL O-nitrophenyl-β-D-galactoside (ONPG), and 2.7 μL/mL β-mercaptoethanol) was added and the time of addition was recorded. The incubation was allowed to continue at 30° C. for 40 minutes, after which 350 μL of 2 M sodium carbonate (Na2CO3) was added to stop the reaction. The assay, tubes were centrifuged at 15000×g for 15 minutes and absorbance measurements at 420 nm were made in triplicate using the supernatants.
The concentration of β-galactosidase in Miller Units was calculated as: […]

[4] = test system: Shigella flexneri (serotype 2B); assay: Growth (OD600) and total protein of Shigella flexneri with rifaximin and bile acids; type: cell-based; settings: 32 μg/mL rifaximin + 4 mM total bile acids
Protocol: A second culture of Shigella flexneri (serotype 2B) bacteria in LB media to which was added 4 mM of bile acids (comprising an equimolar mixture of each of the bile acids: cholic, deoxycholic, chenodeoxycholic, glycocholic, lithocholic, and taurocholic acids at pH 7.4).

[5] = test system: Salmonella enterica (ATCC #14028); assay: Minimal inhibitory concentration (MIC), Salmonella enterica; type: cell-based; settings: ATCC14028
[6] = test system: Enterotoxigenic Escherichia coli (ETEC) strain H10407; settings: cited from earlier work
[7] = test system: Shigella flexneri (serotype 2B); assay: Minimal inhibitory concentration (MIC), Shigella flexneri; type: cell-based
[8] = test system: Enteroaggregative E. coli; assay: Minimal inhibitory concentration (MIC), Enteroaggregative E. coli; type: cell-based; settings: Escherichia coli; Enteroaggregative strain of E. coli used
[9] = test system: Enteroaggregative E. coli; assay: Growth (OD600) and total protein of Enteroaggregative E. coli with rifaximin and bile acids; type: cell-based; settings: 16 μg/mL rifaximin + 4 mM total bile acids
Protocol: A second culture of Enteroaggregative E. coli bacteria in LB media to which was added 4 mM of bile acids (comprising an equimolar mixture of each of the bile acids: cholic, deoxycholic, chenodeoxycholic, glycocholic, lithocholic, and taurocholic acids at pH 7.4).

coliform flora = settings: cited from earlier work
[10] = test system: Salmonella enterica (ATCC #14028); assay: Growth (OD600) and total protein of Salmonella enterica with rifaximin and bile acids; type: cell-based; settings: 32 μg/mL rifaximin + 4 mM total bile acids
Protocol: A second culture of Salmonella enterica bacteria in LB media to which was added 4 mM of bile acids (comprising an equimolar mixture of each of the bile acids: cholic, deoxycholic, chenodeoxycholic, glycocholic, lithocholic, and taurocholic acids at pH 7.4).

[11] = bile acid alone, no rifaximin, after 4 hours of incubation
[12] = 4 mM bile acid + 16 μg/mL rifaximin vs 16 μg/mL rifaximin alone, 4 hours
[13] = bile acid 4 mM combined with 16 μg/mL rifaximin, after 4 hours of incubation

SMILES: C[C@H](CCC(=O)O)[C@H]1CC[C@H]2[C@@H]3[C@H](O)C[C@@H]4C[C@H](O)CC[C@]4(C)[C@H]3CC[C@]12C [Chenodeoxycholic acid]
- Cell density, 4 mM BILE ACIDS [1, 11]: 7.0 ± 0.06 ×10^8 bacteria/milliliter of c
- PERCENT DECREASE IN CELL DENSITY ON ADDITION OF BILE ACIDS TO RIFAXIMIN [2, 12]: 89.2 ± 0.49%
- PERCENT DECREASE IN CELL DENSITY ON ADDITION OF BILE ACIDS TO RIFAXIMIN ([2]; 4 mM bile acid + 16 μg/mL rifaximin vs 16 μg/mL rifaximin alone, 4 hours, listed as chenodeoxycholic acid): 89.2%
- Cell density, 4 mM BILE ACIDS + 16 μg/mL RIFAXIMIN [2, 13]: 0.53 ± 0.51 ×10^8 bacteria/milliliter of c

SMILES: C[C@H](CCC(=O)O)[C@H]1CC[C@H]2[C@@H]3[C@H](O)C[C@@H]4C[C@H](O)CC[C@]4(C)[C@H]3C[C@H](O)[C@]12C [Cholic acid]
- Cell density, 4 mM BILE ACIDS [1, 11]: 11 ± 0.46 ×10^8 bacteria/milliliter of c
- PERCENT DECREASE IN CELL DENSITY ON ADDITION OF BILE ACIDS TO RIFAXIMIN [2, 12]: 95.5 ± 0.80%
- PERCENT DECREASE IN CELL DENSITY ON ADDITION OF BILE ACIDS TO RIFAXIMIN ([2]; 4 mM bile acid + 16 μg/mL rifaximin vs 16 μg/mL rifaximin alone, 4 hours, listed as cholic acid): 95.5%
- Cell density, 4 mM BILE ACIDS + 16 μg/mL RIFAXIMIN [2, 13]: 0.22 ± 0.20 ×10^8 bacteria/milliliter of c

SMILES: C[C@H](CCC(=O)O)[C@H]1CC[C@H]2[C@@H]3CC[C@@H]4C[C@H](O)CC[C@]4(C)[C@H]3C[C@H](O)[C@]12C [Deoxycholic acid]
- Cell density, 4 mM BILE ACIDS [1, 11]: 3.9 ± 0.34 ×10^8 bacteria/milliliter of c
- PERCENT DECREASE IN CELL DENSITY ON ADDITION OF BILE ACIDS TO RIFAXIMIN [2, 12]: 93.8 ± 0.51%
- PERCENT DECREASE IN CELL DENSITY ON ADDITION OF BILE ACIDS TO RIFAXIMIN ([2]; 4 mM bile acid + 16 μg/mL rifaximin vs 16 μg/mL rifaximin alone, 4 hours, listed as deoxycholic acid): 93.8%
- Cell density, 4 mM BILE ACIDS + 16 μg/mL RIFAXIMIN [2, 13]: 0.30 ± 0.49 ×10^8 bacteria/milliliter of c

SMILES: C[C@H](CCC(=O)NCC(=O)O)[C@H]1CC[C@H]2[C@@H]3[C@H](O)C[C@@H]4C[C@H](O)CC[C@]4(C)[C@H]3C[C@H](O)[C@]12C [Glycocholic acid]
- Cell density, 4 mM BILE ACIDS [1, 11]: 14 ± 0.32 ×10^8 bacteria/milliliter of c
- PERCENT DECREASE IN CELL DENSITY ON ADDITION OF BILE ACIDS TO RIFAXIMIN [2, 12]: 80.8 ± 0.40%
- PERCENT DECREASE IN CELL DENSITY ON ADDITION OF BILE ACIDS TO RIFAXIMIN ([2]; 4 mM bile acid + 16 μg/mL rifaximin vs 16 μg/mL rifaximin alone, 4 hours, listed as glycocholic acid): 80.8%
- Cell density, 4 mM BILE ACIDS + 16 μg/mL RIFAXIMIN [2, 13]: 0.94 ± 0.60 ×10^8 bacteria/milliliter of c

SMILES: C[C@H](CCC(=O)O)[C@H]1CC[C@H]2[C@@H]3CC[C@@H]4C[C@H](O)CC[C@]4(C)[C@H]3CC[C@]12C [Lithocholic acid]
- Cell density, 4 mM BILE ACIDS [1, 11]: 6.6 ± 0.25 ×10^8 bacteria/milliliter of c
- PERCENT DECREASE IN CELL DENSITY ON ADDITION OF BILE ACIDS TO RIFAXIMIN [2, 12]: 43.9 ± 0.73%
- PERCENT DECREASE IN CELL DENSITY ON ADDITION OF BILE ACIDS TO RIFAXIMIN ([2]; 4 mM bile acid + 16 μg/mL rifaximin vs 16 μg/mL rifaximin alone, 4 hours, listed as lithocholic acid): 43.9%
- Cell density, 4 mM BILE ACIDS + 16 μg/mL RIFAXIMIN [2, 13]: 2.8 ± 0.27 ×10^8 bacteria/milliliter of c

SMILES: C[C@H](CCC(=O)NCCS(=O)(=O)O)[C@H]1CC[C@H]2[C@@H]3[C@H](O)C[C@@H]4C[C@H](O)CC[C@]4(C)[C@H]3C[C@H](O)[C@]12C [Taurocholic acid]
- Cell density, 4 mM BILE ACIDS [1]: 14 ± 0.51
- Cell density, 4 mM BILE ACIDS + 16 μg/mL RIFAXIMIN [2]: 1.1 ± 0.23
- PERCENT DECREASE IN CELL DENSITY ON ADDITION OF BILE ACIDS TO RIFAXIMIN [2]: 77.6% and 77.6 ± 0.77%

SMILES: CO[C@H]1/C=C/O[C@@]2(C)Oc3c(C)c(O)c4c(O)c(c5c(nc6cc(C)ccn65)c4c3C2=O)NC(=O)/C(C)=C\C=C\[C@H](C)[C@H](O)[C@@H](C)[C@@H](O)[C@@H](C)[C@H](OC(C)=O)[C@@H]1C [rifaximin, Rifaximin]
- MIC (Clostridium difficile): 0.025 µg/mL (≈ 0.0318 µM)
- percent decrease in total bacterial protein expression when bile acids added (E. coli H10407): 59%
- inhibition of bacterial growth by rifaximin alone ([2]; 16 μg/mL rifaximin, absence of bile acids): statistically significant (p=0.026, n=4) inhibition of bacterial growth
- increase of anti-ETEC activity on addition of bile acids / human bile to rifaximin ([2]; after 4 hours): greater than 70%
- Cell density, 16 μg/mL RIFAXIMIN ([2]; rifaximin alone, no bile acids, after 4 hours of incubation, control of the bile acid named in the row): 6.6 ± 0.50 ×10^8 bacteria/milliliter of c and 4.9 ± 1.0 ×10^8 bacteria/milliliter of c
- amount of beta-galactosidase produced vs control [3]: decreased in a dose-dependent fashion below the control values
- effect of adding bile acids to rifaximin on growth and protein synthesis [4]: increases its ability to inhibit the growth and protein synthesis
- MIC [5]: 64 µg/mL (≈ 81.4 µM)
- in vitro minimal inhibitory concentration (MIC) [6]: 32 to 128 µg/mL
- MIC [7]: 64 µg/mL (≈ 81.4 µM)
- MIC [8]: 32 µg/mL (≈ 40.7 µM)
- effect of adding bile acids to rifaximin on growth and protein synthesis [9]: increases its ability to inhibit the growth and protein synthesis
- average MICs of most coliform flora (coliform flora): about 32 μg/mL
- effect of adding bile acids to rifaximin on growth and protein synthesis [10]: increases its ability to inhibit the growth and protein synthesis
